In ChEMBL document CHEMBL4028820, “Novel bioactive molecules from Lentzea violacea strain AS 08 using one strain-many compounds (OSMAC) approach” (Bioorg Med Chem Lett, 2017):
pIC50: −log10 of the molar value. ≈ marks a conversion by molar mass, not a printed value.

How the values were obtained:
T47D = assay: Antiproliferative activity against human T47D cells after 48 hrs by MTT assay; type: functional, cell-based
Pseudomonas aeruginosa = assay: Antibacterial activity against Pseudomonas aeruginosa ATCC 10145 after 20 to 24 hrs by broth microdilution method; type: functional
Klebsiella pneumoniae = assay: Antibacterial activity against Klebsiella pneumoniae ATCC BAA-2146 after 20 to 24 hrs by broth microdilution method; type: functional
HCT-116 = assay: Antiproliferative activity against human HCT116 cells after 48 hrs by MTT assay; type: functional, cell-based; conditions: HCT-116, 48 h
Enterococcus faecalis = assay: Antibacterial activity against Enterococcus faecalis ATCC 51299 after 20 to 24 hrs by broth microdilution method; type: functional
Bacillus subtilis = assay: Antibacterial activity against Bacillus subtilis ATCC 11774 after 20 to 24 hrs by broth microdilution method; type: functional
Micrococcus luteus = assay: Antibacterial activity against Micrococcus luteus ATCC 10240 after 20 to 24 hrs by broth microdilution method; type: functional
Escherichia coli = assay: Antibacterial activity against Escherichia coli ATCC 10536 after 20 to 24 hrs by broth microdilution method; type: functional
Staphylococcus aureus = assay: Antibacterial activity against Staphylococcus aureus ATCC 25923 after 20 to 24 hrs by broth microdilution method; type: functional
[1] = tested on: Staphylococcus epidermidis; assay: Antibacterial activity against Staphylococcus epidermidis ATCC 12228 after 20 to 24 hrs by broth microdilution method; type: functional
HepG2 = assay: Antiproliferative activity against human HepG2 cells after 48 hrs by MTT assay; type: functional, cell-based; conditions: HepG2, 48 h
A549 = assay: Antiproliferative activity against human A549 cells after 48 hrs by MTT assay; type: functional, cell-based; conditions: A549, 48 h

Row | SMILES | pIC50 (T47D) | MIC (Pseudomonas aeruginosa) | MIC (Klebsiella pneumoniae) | pIC50 (HCT-116) | MIC (Enterococcus faecalis) | MIC (Bacillus subtilis) | MIC (Micrococcus luteus) | MIC (Escherichia coli) | MIC (Staphylococcus aureus) | MIC [1] | pIC50 (HepG2) | pIC50 (A549)
1 | CC1=C2C(O)C(C(C)CO)CCC2(C)C=CC1=O (stereo unspecified) | 4.57 | 64 µg/mL (≈ 256 µM) | 32 µg/mL (≈ 128 µM) | 4.72 | 128 µg/mL (≈ 511 µM) | 128 µg/mL (≈ 511 µM) | 128 µg/mL (≈ 511 µM) | 32 µg/mL (≈ 128 µM) | 64 µg/mL (≈ 256 µM) | > 128 µg/mL | 4.41 | 4.65
2 | O=c1[nH]cc(F)c(=O)[nH]1 [FLUOROURACIL] | 4.92 |  |  | 4.58 |  |  |  |  |  |  | 4.70 | 4.82
3 | C[C@H]1COc2c(N3CCN(C)CC3)c(F)cc3c(=O)c(C(=O)O)cn1c23.C[C@H]1COc2c(N3CCN(C)CC3)c(F)cc3c(=O)c(C(=O)O)cn1c23.O [LEVOFLOXACIN] |  | 0.312 to 0.625 µg/mL | 2.5 to 5 µg/mL |  | 0.156 µg/mL | 0.39 µg/mL | 0.078 µg/mL | 0.078 µg/mL | 0.078 to 0.156 µg/mL | 0.039 to 0.078 µg/mL |  | 
4 | CC(C)CC[C@H](O)[C@@H]1C(=O)OC[C@H]1CO | < 4.00 | 32 µg/mL (≈ 148 µM) | 64 µg/mL (≈ 296 µM) | 4.21 | 128 µg/mL (≈ 592 µM) | 128 µg/mL (≈ 592 µM) | 128 µg/mL (≈ 592 µM) | 32 µg/mL (≈ 148 µM) | 64 µg/mL (≈ 296 µM) | 128 µg/mL (≈ 592 µM) | < 4.00 | 4.15
5 | NCC[C@H](O)C(=O)N[C@@H]1C[C@H](N)[C@@H](O[C@H]2O[C@H](CN)[C@@H](O)[C@H](O)[C@H]2O)[C@H](O)[C@H]1O[C@H]1O[C@H](CO)[C@@H](O)[C@H](N)[C@H]1O [AMIKACIN] |  | 2.5 µg/mL (≈ 4.27 µM) | 5 µg/mL (≈ 8.54 µM) |  | 0.39 µg/mL (≈ 0.666 µM) | 0.625 µg/mL (≈ 1.07 µM) | 0.39 µg/mL (≈ 0.666 µM) | 0.312 to 0.625 µg/mL (≈ 0.533 to 1.07 µM) | 2.5 µg/mL (≈ 4.27 µM) | 2.5 µg/mL (≈ 4.27 µM) |  | 
6 | CCCCOC(=O)c1ccccc1C(=O)OCC(C)C | 4.31 | > 128 µg/mL | > 128 µg/mL | 4.44 | > 128 µg/mL | > 128 µg/mL | > 128 µg/mL | > 128 µg/mL | > 128 µg/mL | > 128 µg/mL | 4.27 | 4.42
